Read-outs that look alike come from different tables or passages of the source.
Assays:
mMB-SLCs [1] = assay: Self-renewal, clonogenic assay, mMB-SLCs; assay type: cell-based, mouse; settings: 5 μM
Method: For self-renewal assessment, clonogenic assay was performed as previously described. Briefly: oncospheres were disaggregated with non-enzymatic cell dissociation buffer (Sigma) and cells were plated at clonal density (1-2 cells/mm^2) into 96-well plates and cultured for an appropriate number of days (7-15) until oncospheres were countable.

DAOY cells = assay: Cell viability, MTS assay, DAOY cells; assay type: cell-based; settings: 5 μM, after 48 h
Method: (§1) To evaluate cell viability cells were plated at a density of 5×10^3 cells/well in 96-well plates and were incubated with MTS solution (CellTiter 96® AQueous One Solution Promega).

[2] = PAMPA-BBB (porcine brain lipid extract artificial membrane); assay type: in vitro ADME
Method: Donor solution (500 μM or 250 μM) was prepared by diluting 10 or 5 mM DMSO compound stock solution using phosphate buffer (pH 7.4, 0.01 M). Filter membrane was coated with 5 μl of BBB-specific lipid solution prepared dissolving 16 mg of PBL (Avanti Lipids Polar, 141101P) in 600 μl of n-dodecane. Donor solution (150 μl) was added to each well of the filter plate. To each well of the acceptor plate 300 μl of solution (5% DMSO in phosphate buffer) were added. Each compound was tested in triplicate. The sandwich was incubated for 24 h at room temperature under gentle shaking. After the incubation time, the sandwich plates were separated and 250 μl of the acceptor plate were transferred to a UV quartz microtiter plate and measured by UV spectroscopy, using a Multiskan GO microplate spectrophotometer (Thermo Scientific) at 250−500 nm at step of 5 nm. Reference solutions (250 μl) were prepared diluting the sample stock solutions to the same concentration as that with no membrane barrier. The BBB permeability value Log Pe is determined applying the equation:
log Pe= log{C⋅(−ln(1−[drug]acceptor/[drug]equilibrium))},
where C=(VD⋅VA/(VD+VA)area⋅time)
In this equation, VA is the volume of the acceptor compartment (0.3 cm^3), VD is the donor volume (0.15 cm^3), area is the accessible filter area (0.24 cm^2), and time is the incubation time in seconds.

DAOY-SLCs = assay: Cell death (Trypan blue test) in DAOY-SLCs; assay type: cell-based; settings: 5 μM, 72 h
Method: Trypan blue exclusion test was used to count viable or death cells present in a cell suspension. Each sample was measured in triplicate and repeated at least three times.

PRMT1 = PRMT1 (Homo sapiens, UniProt Q99873); assay: Methyltransferase panel: PRMT1; assay type: biochemical; settings: substrate histone H4
Method: (§2) MC3629 was tested in the cell free enzymatic assay (EZH2/PRC2) in 10-dose IC50 mode with 2-fold serial dilution starting from 400 μM solution, using various histone substrates (histone H3/H4 octamer, histone H3/H4 tetramer, histone H3, and core histone) and SAM as the co-substrate. […] (Figure 2B, and Supplementary Figure 2).
(§3) The appropriate methyltransferase (MT) substrate (0.05 mg/ml core histone for EZH1 complex, 0.05 mg/ml oligonucleosomes for DOT1L, 5 μM histone H3 (1-21) peptide for G9a, 0.05 mg/ml nucleosomes for MLL1 complex, 0.05 mg/ml core histone for SET7/9, 5 μM histone H4 for PRMT1, and 0.001 mg/ml poly(dI-dC) for DNMT1) was added in freshly prepared Reaction Buffer (50 mM Tris-HCl (pH 8.5), 5 mM MgCl2, 50 mM NaCl, 0.01% Brij35, 1 mM DTT, 1% DMSO). The MT enzyme was delivered into the substrate solution and the mixture was mixed gently. Afterwards, the tested compound dissolved in DMSO was delivered into the enzyme/substrate reaction mixture by using Acoustic Technology (Echo 550, LabCyte Inc. Sunnyvale, CA) in nanoliter range, and 1 μM ^3H-SAM was also added into the reaction mixture to initiate the reaction. The reaction mixture was incubated for 1 h at 30°C and then it was delivered to filter-paper for detection. The data were analyzed using Excel and GraphPad Prism software for IC50 curve fits (for EZH1 complex).

EZH1 complex = EZH1 complex (Homo sapiens, UniProt Q92800); assay: Methyltransferase panel: EZH1 complex; assay type: biochemical
Method: as §2, §3

mMB-SLCs [3] = assay: Cell viability, MTS assay, mMB-SLCs; assay type: cell-based, mouse
Method: In both cell lines, we determined the lowest useful dose of MC3629 (5 μM) and the minimum effective time (48 h) (Figure 2D, 2E and Supplementary Figure 4A and 4B for data at 24 and 72 h). We next evaluated the performance of MC3629 on MB-SLCs in terms of cell viability in regards to other EZH2i in use, confirming the dose selection (Supplementary Figure 4C).
as §1

EZH2/PRC2 = target: T1, EZH2/PRC2 (Homo sapiens, UniProt Q15910); assay: EZH2/PRC2 cell free enzymatic assay (3H-SAM, filter-paper detection); assay type: biochemical
T1 construct: (amino acids 2-end) with N-terminal His tag; His tag (N); host or cells: baculovirus expression system
Method: as §2
Reagents: Reaction buffer; 50 mM Tris-HCl (pH 8.0), 50 mM NaCl, 1 mM EDTA, 1 mM DTT, 1 mM PMSF, 1% DMSO. Reaction Conditions: EZH2: Complex of human EZH2 (GenBank Accession No. NM_004456), (amino acids 2-end) with N-terminal His tag, MW= 86 kDa, human EED (NM_003797) (a-a 2-end) with N-terminal Flag tag, MW= 51 kDa, human SUZ12 (NM_015355) (a-a 2-end) with N-terminal His tag, MW = 87 kDa, Human AEBP2 (NM_153207) (a-a 2-end) with N-terminal His tag, MW= 53 kDa, and human RbAp48 (NM_005610) (a-a 2-end) with N-terminal His tag, MW = 48 kDa, co-expressed in baculovirus expression system. Substrate: 5 μM histone H3/H4 tetramer. Methyl donor: 1 μM S-adenosyl-L-[methyl-^3H]methionine (^3H-SAM). Enzyme: 100 nM EZH2 complex. Reaction Procedure: the indicated substrate was dissolved in freshly prepared Reaction Buffer; EZH2 was delivered into the substrate solution and mixed gently. The compound was dissolved in DMSO to a stock of 20 mM and was tested in a 10-dose IC50 mode with 2-fold serial dilution starting at 400 μM. The compound was delivered in DMSO into the EZH2 reaction mixture by using Acoustic Technology (Echo 550, LabCyte Inc. Sunnyvale, CA) in nanoliter range, and incubated for 15 min; ^3H-SAM was delivered into the reaction mixture to initiate the reaction; the reaction mixture was incubated for 1 h at 30°C and then delivered to filter-paper for detection; data were analyzed using Excel and GraphPad Prism 5 software for IC50 curve fits. For SAM competition experiments, the same procedure was used with different SAM concentration (1, 2.5. 5, and 10 μM) and H3/H4 octamer as the substrate.

Cc1cc(C)c(CNC(=O)c2cnn(-c3ccccc3)c2C)c(=O)[nH]1 [MC3629, N-((4,6-dimethyl-2-oxo-1,2-dihydropyridin-3-yl)methyl)-5-methyl-1-phenyl-1H-pyrazole-4-carboxamide]
self-renewal (mMB-SLCs [1]): significantly reduced
cell viability (DAOY cells): impaired cell viability
Papp at 24 h ([2]; Pe in cm/s, pH 7.4, 24 h, room temperature, triplicate, read-out: Log Pe (converted)): 4.68 ×10⁻⁶ cm/s
Δ Log Pe ([2]; respect to propranolol): −0.12
cell death (DAOY-SLCs): induced cell death
inhibition at 200 µM (PRMT1): 5.7%
inhibition at 200 µM (EZH1 complex; 200 μM, substrate histone H3/H4 octamer): 62.4%
IC50 (EZH1 complex; footnote of Supplementary Table 1): 138 µM
minimum effective time, cell viability (mMB-SLCs [3]): 48 h
lowest useful dose, cell viability (mMB-SLCs [3]; dose- and time-dependent experiments): 5 µM
mechanism of inhibition, SAM competition experiments (EZH2/PRC2; histone H3/H4 octamer substrate, SAM 1, 2.5, 5, 10 μM): SAM-dependent mechanism of inhibition
IC50 (EZH2/PRC2; histone H3/H4 tetramer substrate, value printed in Figure 2B, read-out: IC50, EZH2/PRC2): 5.27 µM
IC50 (EZH2/PRC2; range over histone substrates (histone H3/H4 octamer, H3/H4 tetramer, histone H3, core histone), SAM co-substrate, 10-dose, 2-fold dilution from 400 μM, read-out: IC50 values, EZH2/PRC2): 5.27 to 15.4 µM
